3 compounds from patent US20240391862A1, “(1,4,5-TRISUBSTITUTED-1H-PYRAZOL-3-YL)OXY-2-ALKOXY ALKYL ACIDS AND THEIR DERIVATIVES, THEIR SALTS AND THEIR USE AS HERBICIDAL AGENTS” (Bayer AKtiengesellschaft, priority 2021, published 2024) can be followed below.

Molecules are shown by their SMILES.

In one data set the test system is TRZAS. The experiment in a line: Post-emergence herbicidal effect and crop plant compatibility, greenhouse pot test. In kind it is in vivo, Triticum aestivum. As to conditions: 20 g/ha, one-leaf stage, rated visually after about 3 weeks vs untreated controls; for percent crop injury (phytotoxicity) to wheat, post-emergence at 20 g/ha: Triticum aestivum, 504 h, read-out: Post-emergence effect at 20 g/ha against TRZAS in %. The method, boiled down: (§1)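 Visual % activity scored roughly 3 weeks post-spray against untreated plants, where 100% means death and 0% equals control. Plants were treated at the one-leaf stage, 2 to 3 weeks after sowing in sandy loam, at 20 to 320 g/ha.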

The subject of a further data set is ORYSA. The description is as above. In kind it is in vivo, Oryza sativa. As to conditions: for Post-emergence effect against ORYSA: visual rating about 3 weeks after treatment, crop plant; for Post-emergence effect at 320 g/ha against ORYSA in %: one-leaf stage, rated visually after about 3 weeks vs untreated controls. An excerpt: • ALOMY: Alopecurus myosuroides SETVI: Setaria viridis • AVEFA: Avena fatua POLCO: Fallopia convolvulus • AMARE: Amaranthus retroflexus ECHCG: Echinochloa crus-galli • LOLRJ: Lolium rigidum STEME: Stellaria media • VERPE: Veronica persica MATIN: Tripleurospermum inodorum • DIGSA: Digitaria sanguinalis ABUTH: Abutylon threophrasti • TRZAS: Triticum aestivum VIOTR: Viola tricolor • BRSNW: Brassica napus ZEAMX: Zea mays • PHBPU: Ipomoea purpurea GLXMA: Glycine max • ORYSA: Oryza sativa HORMU: Hordeum murinum
Seeds of monocotyledonous and dicotyledonous weeds and crop plants are placed in sandy loam in plastic or organic planting pots, covered with soil and cultivated in a greenhouse under controlled growth conditions. 2 to 3 weeks after sowing, the trial plants are treated at the one-leaf stage. The compounds of the invention, formulated in the form of wettable powders (WP) or as emulsion concentrates (EC), are then sprayed onto the green parts of the plants as aqueous suspension or emulsion with addition of 0.5% additive at a water application rate of 600 l/ha (converted). After the test plants have been kept in the greenhouse under optimum growth conditions for about 3 weeks, the activity of the preparations is rated visually in comparison to untreated controls. For example, 100% activity=the plants have died, 0% activity=like control plants.
Tables 20a to 38c below show the effects/crop compatibilities of selected compounds of the general formula (I) on various harmful plants at an application rate corresponding to 20 to 320 g/ha, which were obtained by the trial procedure specified above.

A further data set relates to ABUTH. The experiment in a line: Post-emergence herbicidal effect, greenhouse pot test. In kind it is in vivo, Abutilon theophrasti. As to conditions: visual rating about 3 weeks after treatment. Put shortly:
as §1

For a further data set, the system named is ALOMY. Described as above. Format: in vivo, Alopecurus myosuroides. As to conditions: 320 g/ha, visual rating about 3 weeks after treatment; for pest or weed control at 320 g/ha: Alopecurus myosuroides, 504 h, read-out: Post-emergence effect against ALOMY. Put shortly: as §1
The test system of the next data set is AMARE. The data set is described as above. In kind it is in vivo, Amaranthus retroflexus. As to conditions: visual rating about 3 weeks after treatment; for pest or weed control at 320 g/ha: Amaranthus retroflexus, 504 h, read-out: Post-emergence effect against AMARE. The method, boiled down: as §1
The test system of another data set is AVEFA. Described as above. Format: in vivo, Avena fatua. Conditions: visual rating about 3 weeks after treatment. Put shortly: as §1
For a further data set, the system named is DIGSA. Described as above. Conditions: visual rating about 3 weeks after treatment; for pest or weed control at 320 g/ha: Digitaria sanguinalis, 504 h, read-out: Post-emergence effect against DIGSA. In kind it is in vivo, Digitaria sanguinalis. Put shortly:
as §1

The subject of a further data set is ECHCG. Described as above. Format: in vivo, Echinochloa crus-galli. Conditions: for pest or weed control at 80 g/ha / pest or weed control at 320 g/ha: Echinochloa crus-galli, 504 h, read-out: Post-emergence effect against ECHCG in %. The method, boiled down: as §1
The subject of the next data set is LOLRI. The data set is described as above. In kind it is in vivo, Lolium rigidum. As to conditions: 320 g/ha; for pest or weed control at 320 g/ha: Lolium rigidum, 504 h, read-out: Post-emergence effect against LOLRI in %. Put shortly: as §1
In another data set the test system is MATIN. The description is as above. In kind it is in vivo, Tripleurospermum inodorum. Put shortly: as §1
For another data set, the system named is PHBPU. The description is as above. Format: in vivo, Ipomoea purpurea. The method, boiled down:
as §1

The next data set relates to POLCO. The data set is described as above. Format: in vivo, Fallopia convolvulus. The method, boiled down: as §1
For another data set, the system named is SETVI. The data set is described as above. In kind it is in vivo, Setaria viridis. Put shortly:
as §1

Another data set relates to VERPE. The description is as above. In kind it is in vivo, Veronica persica. The method, boiled down: as §1
A further data set concerns VIOTR. Described as above. In kind it is in vivo, Viola tricolor. Put shortly: as §1
The subject of a further data set is ZEAMX. The experiment in a line: Post-emergence herbicidal effect and crop plant compatibility, greenhouse pot test. In kind it is in vivo, Zea mays. As to conditions: Zea mays, 504 h, 20 g/ha, one-leaf stage, rated visually after about 3 weeks vs untreated controls, read-out: Post-emergence effect at 20 g/ha against ZEAMX in %. Put shortly:
as §1

[1] abbreviates: Abutilon theophrasti, 504 h, 320 g/ha, read-out: Post-emergence effect against ABUTH.
Where [2] appears, read: Avena fatua, 504 h, 320 g/ha, read-out: Post-emergence effect against AVEFA.
[3] abbreviates: Setaria viridis, 504 h, 320 g/ha, read-out: Post-emergence effect against SETVI in %.

In the case of `COC(=O)C(OC)Oc1nn(-c2cccc(Cl)c2F)c(-c2cncc(F)c2)c1Br` (stereo not drawn) [Example I-17], the “Post-emergence effect at 20 g/ha against TRZAS in %” value in the data set on TRZAS was 10%. Also, the “Post-emergence effect against ORYSA” value in the data set with ORYSA (20 g/ha) was 0%; in the data set on ORYSA (80 g/ha), 20%. Moreover, the “Post-emergence effect against ABUTH” value with ABUTH (20 g/ha) is reported as 80%; in the data set on ABUTH (80 g/ha) it was 90%; with ABUTH (320 g/ha), 90%. In the data set on ALOMY, the “Post-emergence effect against ALOMY” value came out at 90%. Moreover, the “Post-emergence effect against AMARE” value in the data set with AMARE (20 g/ha), in the data set on AMARE (80 g/ha) and in the data set on AMARE (320 g/ha) was 80% throughout. Moreover, the “Post-emergence effect against AVEFA” value in the data set on AVEFA (320 g/ha) amounted to 90%. For the same compound, the “Post-emergence effect against DIGSA” value is on record as 80% with DIGSA (80 g/ha) and 90% with DIGSA (320 g/ha). Besides, the “Post-emergence effect against ECHCG in %” value with ECHCG (80 g/ha) is given as 80%; in the data set on ECHCG (320 g/ha), 90%. Moreover, in the data set with LOLRI, the “Post-emergence effect against LOLRI in %” value stood at 80%. The “Post-emergence effect against MATIN in %” value with MATIN (20 g/ha), in the data set with MATIN (80 g/ha) and in the data set on MATIN (320 g/ha) was 80% in each case. Besides, the “Post-emergence effect against PHBPU in %” value in the data set on PHBPU (20 g/ha), in the data set on PHBPU (80 g/ha) and in the data set on PHBPU (320 g/ha) was 90% throughout. Besides, the “Post-emergence effect against POLCO in %” value in the data set on POLCO (80 g/ha) and in the data set with POLCO (320 g/ha) was 80% throughout. In addition, the figures for the “Post-emergence effect against SETVI in %” value in the data set with SETVI (80 g/ha) and in the data set with SETVI (320 g/ha) were 80% and 90%, respectively. Further, the “Post-emergence effect against VERPE in %” value turned out to be 80% in the data set with VERPE (20 g/ha), 80% in the data set on VERPE (80 g/ha) and 90% with VERPE (320 g/ha). Besides, the “Post-emergence effect against VIOTR in %” value in the data set on VIOTR (20 g/ha), with VIOTR (80 g/ha) and in the data set with VIOTR (320 g/ha) was 90% throughout.

`COC(=O)C(OC)Oc1nn(-c2cc(F)ccc2F)c(-c2cncc(F)c2)c1I` (stereo not drawn) [Example I-28]: the percent crop injury (phytotoxicity) to wheat, post-emergence at 20 g/ha in the data set on TRZAS is 20%. For the same compound, in the data set with ORYSA, the “Post-emergence effect at 320 g/ha against ORYSA in %” value was found to be 20%. The pest or weed control at 80 g/ha in the data set on ABUTH (Abutilon theophrasti, 504 h, 80 g/ha, read-out: Post-emergence effect against ABUTH) was 90%; in the data set with AVEFA (Avena fatua, 504 h, 80 g/ha, read-out: Post-emergence effect against AVEFA), 80%; in the data set on ECHCG (80 g/ha), 90%; in the data set on MATIN (Tripleurospermum inodorum, 504 h, 80 g/ha, read-out: Post-emergence effect against MATIN in %) it was 90%; in the data set with PHBPU (Ipomoea purpurea, 504 h, 80 g/ha, read-out: Post-emergence effect against PHBPU in %), 90%; in the data set on SETVI (Setaria viridis, 504 h, 80 g/ha, read-out: Post-emergence effect against SETVI in %), 80%. For the same compound, in the data set with VIOTR (Viola tricolor, 504 h, 80 g/ha, read-out: Post-emergence effect against VIOTR in %), the pest or weed control at 80 g/ha is 90%. Further, the pest or weed control at 320 g/ha in the data set on ABUTH (setting [1]) amounted to 100%; with ALOMY, 90%; in the data set with AMARE (320 g/ha), 80%; with AVEFA (setting [2]), 90%; with DIGSA (320 g/ha) it was 80%; in the data set on ECHCG (320 g/ha), 90%. Further, the pest or weed control at 320 g/ha amounted to 90% in the data set on LOLRI; 90% in the data set with MATIN (Tripleurospermum inodorum, 504 h, 320 g/ha, read-out: Post-emergence effect against MATIN in %); 90% in the data set with PHBPU (Ipomoea purpurea, 504 h, 320 g/ha, read-out: Post-emergence effect against PHBPU in %); 80% in the data set on POLCO (Fallopia convolvulus, 504 h, 320 g/ha, read-out: Post-emergence effect against POLCO in %); 90% in the data set on SETVI (setting [3]); 80% in the data set on VERPE (Veronica persica, 504 h, 320 g/ha, read-out: Post-emergence effect against VERPE in %). The pest or weed control at 320 g/ha in the data set on VIOTR (Viola tricolor, 504 h, 320 g/ha, read-out: Post-emergence effect against VIOTR in %) amounted to 90%. Besides, the pest or weed control at 20 g/ha in the data set on MATIN (Tripleurospermum inodorum, 504 h, 20 g/ha, read-out: Post-emergence effect against MATIN in %) came to 80%; in the data set on PHBPU (Ipomoea purpurea, 504 h, 20 g/ha, read-out: Post-emergence effect against PHBPU in %), 80%; in the data set with VIOTR (Viola tricolor, 504 h, 20 g/ha, read-out: Post-emergence effect against VIOTR in %), 80%.

For the compound `COC(=O)C(OC)Oc1nn(-c2cnccn2)c(-c2ccc(F)nc2)c1Cl` (stereo not drawn) [Example I-35], the plant injury at 20 g/ha in the data set with ZEAMX is 20%. Besides, the percent crop injury (phytotoxicity) to wheat, post-emergence at 20 g/ha in the data set on TRZAS was determined as 20%. Further, the “Post-emergence effect at 320 g/ha against ORYSA in %” value in the data set with ORYSA is 10%. The pest or weed control at 320 g/ha was 80% with ABUTH (setting [1]); 90% in the data set with ALOMY; 80% with AMARE (320 g/ha); 80% in the data set with AVEFA (setting [2]); 80% in the data set on DIGSA (320 g/ha); 90% in the data set on ECHCG (320 g/ha). The pest or weed control at 320 g/ha with LOLRI and in the data set on SETVI (setting [3]) was 80% throughout. In addition, in the data set on ECHCG (80 g/ha), the pest or weed control at 80 g/ha is 80%.
